Data taken from US8124793B2, “Derivatives of ethylene methanedisulfonate as cancer chemotherapeutic agents” (priority 2007, dated 2012).

What was measured:
Type in all cases: cell-based
OVCAR-3 = experiment: NCI screen, growth of human tumor cells: Ovarian Cancer OVCAR-3; conditions: OVCAR-3 (Ovarian Cancer), 10^−4 molar
Summary of the method: (§1)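 Percent-growth read-out from the NCI cancer cell screen; data annotated by cancer type and molar concentration, ≥60 points per compound.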

A498 = experiment: NCI screen, growth of human tumor cells: Renal Cancer A498; conditions: A498, 10^−4 molar
HOP-62 = experiment: NCI screen, growth of human tumor cells: Non-Small Cell Lung HOP-62; conditions: HOP-62, 10^−4 molar
Summary of the method: as §1

AS49/ATCC = experiment: NCI screen, growth of human tumor cells: Non-Small Cell Lung AS49/ATCC; conditions: AS49/ATCC (Non-Small Cell Lung), 10^−4 molar
Summary of the method: as §1

SR = experiment: NCI screen, growth of human tumor cells: Leukemia SR; conditions: SR
Summary of the method: as §1

SW620 = experiment: NCI screen, growth of human tumor cells: Colon Cancer SW620; conditions: SW620, 10^−4 molar
Summary of the method: as §1

SF-268 = experiment: NCI screen, growth of human tumor cells: CNS Cancer SF-268; conditions: SF-268 (CNS Cancer), 10^−4 molar
Summary of the method: as §1

HOP-92 = experiment: NCI screen, growth of human tumor cells: Non-Small Cell Lung HOP-92; conditions: HOP-92, 10^−4 molar
Summary of the method: as §1

MALME-3M = experiment: NCI screen, growth of human tumor cells: Melanoma MALME-3M; conditions: MALME-3M, 10^−4 molar
Summary of the method: as §1

SNB-78 = experiment: NCI screen, growth of human tumor cells: CNS Cancer SNB-78; conditions: SNB-78 (CNS Cancer), 10^−4 molar
Procedure: (§2) The compounds listed in Section II are arranged by their NSC number followed by the percent of growth of human tumor cells when the compound is administrated at 10^−4 molar concentration.
(§3) In the NCI screening process, each compound was tested and described by a minimum of 60 data points. The test data include, but are not limited to the type of cancer, the molar concentration used in the screen, and the percent growth of the cancer. In some cases, NMR and elemental analysis were used for structural assignment.

K562 = experiment: NCI screen, growth of human tumor cells: Leukemia K562; conditions: K562 (Leukemia), 10^−4 molar
Summary of the method: as §1

RPMI-8226 = experiment: NCI screen, growth of human tumor cells: Leukemia RPMI-8226
Summary of the method: as §1

MOLT-4 = experiment: NCI screen, growth of human tumor cells: Leukemia MOLT-4; conditions: MOLT-4 (Leukemia), 10^−4 molar
Summary of the method: as §1

TK-10 = experiment: NCI screen, growth of human tumor cells: Renal Cancer TK-10; conditions: TK-10 (Renal Cancer), 10^−4 molar
Procedure: as §3

CCRF-CEM = experiment: NCI screen, growth of human tumor cells: Leukemia CCRF-CEM; conditions: CCRF-CEM
Summary of the method: as §1

NCI-H226 = experiment: NCI screen, growth of human tumor cells: Non-Small Cell Lung NCI-H226; conditions: NCI-H226, 10^−4 molar
Summary of the method: as §1

UACC-257 = experiment: NCI screen, growth of human tumor cells: Melanoma UACC-257; conditions: UACC-257 (Melanoma), 10^−4 molar
Summary of the method: as §1

RXF-631 = experiment: NCI screen, growth of human tumor cells: Renal Cancer RXF-631; conditions: RXF-631 (Renal Cancer), 10^−4 molar
Procedure: as §2, §3

SF-295 = experiment: NCI screen, growth of human tumor cells: CNS Cancer SF-295; conditions: SF-295 (CNS Cancer), 10^−4 molar
Summary of the method: as §1

786-0 = experiment: NCI screen, growth of human tumor cells: Renal Cancer 786-0; conditions: 786-0, 10^−4 molar
Summary of the method: as §1

DMS273 = experiment: NCI screen, growth of human tumor cells: Small Cell Lung Cancer DMS273; conditions: 10^−4 molar
Procedure: as §2, §3

HT29 = experiment: NCI screen, growth of human tumor cells: Colon Cancer HT29; conditions: HT29 (Colon Cancer), 10^−4 molar
Summary of the method: as §1

UO-31 = experiment: NCI screen, growth of human tumor cells: Renal Cancer UO-31; conditions: UO-31, 10^−4 molar
Summary of the method: as §1

XF 498 = experiment: NCI screen, growth of human tumor cells: CNS Cancer XF 498; conditions: XF 498 (CNS Cancer), 10^−4 molar
Procedure: as §2, §3

OVCAR-8 = experiment: NCI screen, growth of human tumor cells: Ovarian Cancer OVCAR-8; conditions: OVCAR-8 (Ovarian Cancer), 10^−4 molar
Summary of the method: as §1

SN12C = experiment: NCI screen, growth of human tumor cells: Renal Cancer SN12C; conditions: SN12C (Renal Cancer), 10^−4 molar
Summary of the method: as §1

SF-539 = experiment: NCI screen, growth of human tumor cells: CNS Cancer SF-539; conditions: SF-539 (CNS Cancer), 10^−4 molar
Summary of the method: as §1

HCT-116 = experiment: NCI screen, growth of human tumor cells: Colon Cancer HCT-116; conditions: HCT-116, 10^−4 molar
Summary of the method: as §1

HCC-2998 = experiment: NCI screen, growth of human tumor cells: HCC-2998 (listed under Non-Small Cell Lung); conditions: HCC-2998, 10^−4 molar
Summary of the method: as §1

LOXIMVI = experiment: NCI screen, growth of human tumor cells: Melanoma LOXIMVI; conditions: LOXIMVI, 10^−4 molar
Summary of the method: as §1

NCI-H522 = experiment: NCI screen, growth of human tumor cells: Non-Small Cell Lung NCI-H522; conditions: NCI-H522 (Non-Small Cell Lung), 10^−4 molar
Summary of the method: as §1

KM12 = experiment: NCI screen, growth of human tumor cells: Colon Cancer KM12; conditions: KM12 (Colon Cancer), 10^−4 molar
Summary of the method: as §1

SNB-75 = experiment: NCI screen, growth of human tumor cells: CNS Cancer SNB-75; conditions: SNB-75 (CNS Cancer), 10^−4 molar
Summary of the method: as §1

UACC-62 = experiment: NCI screen, growth of human tumor cells: Melanoma UACC-62; conditions: UACC-62, 10^−4 molar
Summary of the method: as §1

NCI-H23 = experiment: NCI screen, growth of human tumor cells: Non-Small Cell Lung NCI-H23
Summary of the method: as §1

IGROVI = experiment: NCI screen, growth of human tumor cells: Ovarian Cancer IGROVI; conditions: IGROVI (Ovarian Cancer), 10^−4 molar
Summary of the method: as §1

SK-MEL-2 = experiment: NCI screen, growth of human tumor cells: Melanoma SK-MEL-2; conditions: SK-MEL-2, 10^−4 molar
Summary of the method: as §1

SK-OV-3 = experiment: NCI screen, growth of human tumor cells: Ovarian Cancer SK-OV-3; conditions: SK-OV-3 (Ovarian Cancer), 10^−4 molar
Summary of the method: as §1

CAKI-1 = experiment: NCI screen, growth of human tumor cells: Renal Cancer CAKI-1; conditions: CAKI-1, 10^−4 molar
Summary of the method: as §1

EKVX = experiment: NCI screen, growth of human tumor cells: Non-Small Cell Lung EKVX; conditions: EKVX (Non-Small Cell Lung), 10^−4 molar
Summary of the method: as §1

OVCAR-4 = experiment: NCI screen, growth of human tumor cells: Ovarian Cancer OVCAR-4; conditions: OVCAR-4 (Ovarian Cancer), 10^−4 molar
Summary of the method: as §1

SK-MEL-5 = experiment: NCI screen, growth of human tumor cells: Melanoma SK-MEL-5; conditions: SK-MEL-5, 10^−4 molar
Summary of the method: as §1

NCI-H322M = experiment: NCI screen, growth of human tumor cells: Non-Small Cell Lung NCI-H322M; conditions: NCI-H322M (Non-Small Cell Lung), 10^−4 molar
Summary of the method: as §1

HL-60 (TB) = experiment: NCI screen, growth of human tumor cells: Leukemia HL-60 (TB); conditions: HL-60 (TB) (Leukemia), 10^−4 molar
Procedure: as §3

DMS114 = experiment: NCI screen, growth of human tumor cells: Small Cell Lung Cancer DMS114; conditions: 10^−4 molar
Procedure: as §2, §3

LXFL529 = experiment: NCI screen, growth of human tumor cells: Non-Small Cell Lung Cancer LXFL529
SK-MEL-28 = experiment: NCI screen, growth of human tumor cells: Melanoma SK-MEL-28; conditions: SK-MEL-28 (Melanoma), 10^−4 molar
Summary of the method: as §1

COLO205 = experiment: NCI screen, growth of human tumor cells: Colon Cancer COLO205; conditions: COLO205, 10^−4 molar
Summary of the method: as §1

O=S1(=O)OCCOS(=O)(=O)C1(I)I [NSC 648308, ethylene diiodomethanedisulfonate]
percent of growth of human tumor cells (OVCAR-3): −14% | % Growth (A498): −100% | % Growth (HOP-62): −69% | percent of growth of human tumor cells (AS49/ATCC): −17% | % Growth (SR; 10^−4 molar): −37% | % Growth (SR; 10^−5 molar): 48% | % Growth (SW620): −55% | percent of growth of human tumor cells (SF-268): −11% | % Growth (HOP-92): −78% | % Growth (MALME-3M): −80% | percent of growth of human tumor cells (SNB-78): −6% | percent of growth of human tumor cells (K562): −16% | % Growth (RPMI-8226; RPMI-8226, 10^−4 molar): −37% | % Growth (RPMI-8226; RPMI-8226, 10^−5 molar): 48% | percent of growth of human tumor cells (MOLT-4): −22% | percent of growth of human tumor cells (TK-10): −19% | % Growth (CCRF-CEM; 10^−4 molar): −44% | % Growth (CCRF-CEM; 10^−5 molar): 55% | % Growth (NCI-H226): −91% | percent of growth of human tumor cells (UACC-257): −54% | percent of growth of human tumor cells (RXF-631): −44% | percent of growth of human tumor cells (SF-295): −4% | % Growth (786-0): −95% | percent of growth of human tumor cells (DMS273): −45% | percent of growth of human tumor cells (HT29): −18% | % Growth (UO-31): −95% | percent of growth of human tumor cells (XF 498): −67% | percent of growth of human tumor cells (OVCAR-8): −25% | percent of growth of human tumor cells (SN12C): −61% | percent of growth of human tumor cells (SF-539): −25% | % Growth (HCT-116): −100% | % Growth (HCC-2998): −99% | % Growth (LOXIMVI): −93% | percent of growth of human tumor cells (NCI-H522): −45% | percent of growth of human tumor cells (KM12): −58% | percent of growth of human tumor cells (SNB-75): −36% | % Growth (UACC-62): −82% | % Growth (NCI-H23; NCI-H23, 10^−4 molar): −70% | % Growth (NCI-H23; NCI-H23, 10^−5 molar): 56% | percent of growth of human tumor cells (IGROVI): −24% | % Growth (SK-MEL-2): −80% | percent of growth of human tumor cells (SK-OV-3): −49% | % Growth (CAKI-1): −71% | percent of growth of human tumor cells (EKVX): −35% | percent of growth of human tumor cells (OVCAR-4): −39% | % Growth (SK-MEL-5): −91% | percent of growth of human tumor cells (NCI-H322M): −45% | percent of growth of human tumor cells (HL-60 (TB)): −16% | percent of growth of human tumor cells (DMS114): −46% | % Growth (LXFL529; LXFL529, 10^−4 molar): −72% | % Growth (LXFL529; LXFL529, 10^−5 molar): 55% | percent of growth of human tumor cells (SK-MEL-28): −29% | % Growth (COLO205): −61%
